Molecules are shown by their SMILES. Read-outs that look alike come from different tables or passages of the source.

One data set concerns the target T1, mouse UT-B (Mus musculus, UniProt Q8VHL0).
T1 construct: Screening was performed using mouse erythrocytes, which strongly express UT-B; endogenous in cells; host or cells: erythrocytes in whole blood of wild-type CD1 mice
T1 sequence (Q8VHL0 1-384): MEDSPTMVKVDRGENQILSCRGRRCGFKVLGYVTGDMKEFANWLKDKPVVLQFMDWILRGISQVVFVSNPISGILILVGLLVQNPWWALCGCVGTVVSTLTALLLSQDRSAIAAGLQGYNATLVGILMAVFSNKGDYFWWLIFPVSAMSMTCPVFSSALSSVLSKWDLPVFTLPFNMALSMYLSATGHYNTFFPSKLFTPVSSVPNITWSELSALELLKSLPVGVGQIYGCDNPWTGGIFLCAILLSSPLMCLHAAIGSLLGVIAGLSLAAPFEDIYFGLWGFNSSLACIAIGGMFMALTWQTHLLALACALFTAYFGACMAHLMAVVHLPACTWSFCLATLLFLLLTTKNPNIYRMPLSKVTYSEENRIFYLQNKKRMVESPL
The experiment in a line: Stopped-flow light scattering assay of erythrocyte urea transport, mouse erythrocytes. Format: cell-based. On the procedure:
Erythrocyte urea and water permeabilities were measured by stopped-flow light scattering using a Hi-Tech Sf-51 instrument (Wiltshire, UK). For measurement of urea permeability, dilutions of whole blood (mouse or human) in PBS (hematocrit ˜0.5%) were incubated with test compounds for 5 min and then subjected to a 100-mM inwardly directed urea gradient. After an initial osmotic shrinking phase, the kinetics of increasing cell volume caused by urea influx was measured as the time-course of 90° scattered light intensity at 530 nm, with increasing cell volume producing reduced scattered light intensity. Urea permeability and percentage inhibition were computed as described (see, e.g., Levin et al., FASEB J. supra, 2007)). In some experiments, different urea gradients (25-200 mM) were used, or inhibitor was added only to the erythrocyte-containing or urea-containing solutions. In some experiments an outwardly directed urea gradient was used in which erythrocytes were incubated for 30 min with PBS containing specified urea and mixed in the stopped-flow apparatus with PBS. In reversibility experiments, erythrocytes were incubated for 30 min with inhibitor, washed three times to remove inhibitor, and urea transport assayed. Osmotic water permeability was measured using a 100 mM gradient of sucrose.
UT-B inhibition potency was assayed quantitatively by stopped-flow light scattering from the kinetics of urea influx in response to an inwardly directed urea gradient (see Materials and Methods above). Rapid mixing of an erythrocyte suspension with an equal volume of a hyperosmolar, urea-containing solution to give a 100 mM inwardly directly urea gradient produced rapid cell shrinking due to osmotic water efflux, followed by cell swelling as a consequence of urea (and water) influx.
Measurements were done using a Hi-Tech Sf-51 instrument (Wiltshire, UK). Whole blood (mouse or human) was diluted in PBS (hematocrit approximately 0.5%), incubated with inhibitor for 5 min and then subjected to a 100-mM inwardly directed urea gradient. The kinetics of increasing cell volume caused by urea influx was measured as the time-course of 90° scattered light intensity at 530 nm. Urea permeability and percentage inhibition were computed as described (see, e.g., Levin et al., supra 2007).

The target of a further data set is T2, TMEM16A (Homo sapiens, UniProt Q5XXA6).
T2 construct: expressed in transfected cells
T2 sequence (Q5XXA6 1-986): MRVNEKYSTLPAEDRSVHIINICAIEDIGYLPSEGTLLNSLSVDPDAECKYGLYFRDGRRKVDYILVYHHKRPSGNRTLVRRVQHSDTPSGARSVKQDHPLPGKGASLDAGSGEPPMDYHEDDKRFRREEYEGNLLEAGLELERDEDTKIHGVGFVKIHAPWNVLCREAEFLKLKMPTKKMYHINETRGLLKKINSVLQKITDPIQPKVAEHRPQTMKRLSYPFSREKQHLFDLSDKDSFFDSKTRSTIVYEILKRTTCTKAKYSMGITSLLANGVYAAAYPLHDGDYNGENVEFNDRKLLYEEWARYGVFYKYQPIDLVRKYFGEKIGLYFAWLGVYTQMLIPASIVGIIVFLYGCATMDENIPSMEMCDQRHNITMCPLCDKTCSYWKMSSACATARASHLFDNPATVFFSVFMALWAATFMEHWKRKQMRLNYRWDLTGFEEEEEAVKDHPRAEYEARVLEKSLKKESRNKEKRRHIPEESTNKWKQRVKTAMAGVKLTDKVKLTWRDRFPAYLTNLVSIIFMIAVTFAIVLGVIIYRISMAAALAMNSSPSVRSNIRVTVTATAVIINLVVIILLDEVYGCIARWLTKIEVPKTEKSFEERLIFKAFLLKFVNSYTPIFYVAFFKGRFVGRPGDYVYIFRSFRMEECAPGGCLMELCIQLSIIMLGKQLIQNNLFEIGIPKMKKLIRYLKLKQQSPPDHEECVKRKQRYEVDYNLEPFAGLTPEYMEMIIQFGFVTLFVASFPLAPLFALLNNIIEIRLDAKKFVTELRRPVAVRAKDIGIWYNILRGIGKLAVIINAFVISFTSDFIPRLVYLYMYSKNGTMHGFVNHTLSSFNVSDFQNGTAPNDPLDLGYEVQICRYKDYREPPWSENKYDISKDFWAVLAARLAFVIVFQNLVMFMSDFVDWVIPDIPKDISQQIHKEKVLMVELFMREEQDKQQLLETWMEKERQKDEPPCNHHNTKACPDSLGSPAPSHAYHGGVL
The data set can be described thus: TMEM16A calcium-activated chloride conductance by short-circuit current. Format: cell-based. Particulars: 10 μM, ATP-activated. On the procedure:
CFTR chloride conductance was measured by short-circuit current analysis in Fisher rat thyroid (FRT) cells stably expressing CFTR, as described (see, e.g., Ma et al., J. Biol. Chem. (2002), supra). CFTR chloride conductance was stimulated by forskolin and inhibited by a thiazolidinone compound that inhibits CFTR (CFTRinh-172). TMEM16A calcium-activated chloride conductance was measured by short-circuit current analysis in FRT cells stably expressing TMEM16A, as described (see, e.g., Namkung et al., J. Biol. Chem. 286:2365-2374, 2011. TMEM16A was stimulated by ATP and inhibited by tannic acid (100 μM). Cytotoxicity was measured in MDCK using the MTT assay [3(4,5-dimethyl-thiazol-2-yl)-2,5-diphenyl tetrazolium bromide] by standard procedures.

For a further data set, the system named is MDCK cells. The experiment in a line: MTT cytotoxicity assay. It is filed as cell-based, canine. Particulars: up to 10 μM, 24 h.

In general, inhibition refers to the share of the control response that was lost under treatment. A lower inhibition goes with a weak effect. A word on the IC50: it is the concentration at which inhibition is half-maximal. Turning to `CCc1ccc(S(=O)(=O)c2nnn3c2nc(NCc2cccs2)c2sccc23)cc1` [UTBinh-14, [3-(4-Ethyl-benzenesulfonyl)-thieno[2,3-e][1,2,3]triazolo[1,5-a]pyrimidin-5-yl]-thiophen-2-ylmethylamine], the “mechanism of UT-B inhibition vs urea” value at mouse UT-B (0 and 50 nM, urea gradient varied) is listed as “competitive”. Also, on mouse UT-B (100 nM, mouse erythrocytes), the “reduction of urea transport” value is reported as “approximately 75%”. Further, the “reversibility of UT-B inhibition” value at mouse UT-B (100 nM, washout) is given as “reversible”. The compound also displayed an inhibition at 1 µM against mouse UT-B (1 μM) of roughly 100%. Further, the “urea transport in UT-B null erythrocytes” value at mouse UT-B (erythrocytes from UT-B knockout mice) is “did not inhibit”. In addition, the IC50 was 26.7 nM at mouse UT-B (erythrocytes pre-loaded with 100 mM urea, mixed with urea-free PBS, read-out: IC50 urea efflux) and 25.1 nM at mouse UT-B (urea influx, 100 mM inwardly directed urea gradient, read-out: IC50 for mouse UT-B). Moreover, the “inhibition of TMEM16A chloride conductance” value at TMEM16A is on record as “no significant inhibition”. Further, in the data set with MDCK cells, the cytotoxicity entry was “no cytotoxicity”.

(Values after patent US9303042B2, “Triazolothienopyrimidine compound inhibitors of urea transporters and methods of using inhibitors” (The Regents of the University of California, priority 2012, dated 2016).)
